The values that follow come from patent US10123994B2, “Heterocyclic derivative having AMPK-activating activity” (SHIONOGI & CO., LTD., priority 2014, dated 2018).

By Emax is commonly meant the maximal effect, on the per cent scale that the assay sets.

The assay addresses T1, Human AMPK α2β2γ1 (Homo sapiens, UniProt O43741+P54619+P54646).
T1 construct: The full length cDNAs of human AMPK β2 (NM_005399.3) and human AMPK α2 (NM_006252.3); The full length cDNAs of human AMPK β2 (NM_005399.3); the full length cDNA of human AMPK γ1 (NM_002733.3); 6xHis (N); made in house; host or cells: Escherichia coli BL21 CodonPlus (DE3)-RIL (AMPK); BL21 Star (DE3) (CaMKK2)
Put plainly: Test Example 2: AMPK activator evaluation, mobility-shift kinase assay after CaMKK2 phosphorylation. It counts as biochemical. The conditions noted are these: for EC150: compound concentration showing 150% relative to the control (100%); for Emax: maximum rate of increase in activity within the measurement range, control = 100%. The method, then: The full length cDNAs of human AMPK β2 (NM_005399.3) and human AMPK α2 (NM_006252.3) were inserted into the MCS1 and MCS2 of the pETDuet-1 vector to prepare a human AMPK β2 and human AMPK α2 (6× His tag at the 5′ terminus) expressing plasmid. The plasmid was cotransfected with an expression plasmid, in which the full length cDNA of human AMPK γ1 (NM_002733.3) had been inserted into pET28b(+), into BL21 CodonPlus (DE3)-RIL to obtain an expression strain. The expression strain was cultured in TB medium, followed by induction with 0.5 mM IPTG, and cultured at 25° C. for 3 hours and then harvested. After ultrasonication, supernatant was collected and applied to Histrap FF column (GE) and RESOUECE Q column (GE) to prepare 12.5 mg of purified sample containing three types of subunit from 1.8 L of broth.
An expression vector, in which the full length cDNA of human CAMKK β (NM_172226.1) had been inserted into pGEX-6P-3, was transfected into BL21 Star (DE3). The expression strain was cultured in TB medium, followed by induction with 0.5 mM IPTG, and cultured at 25° C. for 3 hours and then harvested. After ultrasonication, supernatant was collected and applied to GSTrap FF column (GE) to prepare 14 mg of GST-fused CAMKK β from 720 ml of broth.
Thus, phosphorylation treatment was carried out as pretreatment.
Human AMPK α2β2γ1 in an amount to give a conversion rate of approximately 10% by reaction for 2 hours, and CaMKK2 in an amount capable of sufficiently imparting activity to AMPK for one hour were mixed in a buffer solution consisting of a 50 mM HEPES-NaOH buffer solution (pH 7.0), 100 mM NaCl, 5 mM magnesium chloride, 0.1% bovine serum albumin, 0.2 mM sodium orthovanadate(V), 1 mM ethylene glycol-bis(2-aminoethyl ether)-N,N,N′,N′-tetraacetic acid (EGTA), 5 mM disodium β-glycerophosphate, 1 mM dithiothreitol and 0.2 mM ATP, and the obtained liquid was left to stand at 25° C. for 1 to 1.5 hours to sufficiently phosphorylate AMPK.
After that, to the enzyme liquid, which had been subjected to phosphorylation treatment, a compound dissolved in DMSO was added so as to have a 1% DMSO concentration. The obtained liquid was left to stand for 10 minutes.
To the liquid, a substrate solution consisting of a 50 mM HEPES-NaOH buffer solution (pH 7.0), 100 mM NaCl, 10 mM magnesium chloride, 0.1% bovine serum albumin, 0.2 mM sodium orthovanadate(V), 1 mM ethylene glycol-bis(2-aminoethyl ether)-N,N,N′,N′-tetraacetic acid (EGTA), 5 mM disodium β-glycerophosphate, 2 mM dithiothreitol, 0.4 mM ATP and 3 μM FL-Peptide 7 (manufactured by Caliper Life Sciences, Inc.) was added in equal amount (10 μl in total). The obtained liquid was allowed to react at 25° C. for 2 hours, and 10 μl of 20 mM EDTA was then added thereto to stop the reaction.
To detect phosphorylated fluorescent substrates, the reaction liquid was applied to a measuring device, LabChip EZ Reader II manufactured by Caliper Life Science, Inc., for detecting fluorescence by using differences in mobility due to differences in charge. The setting conditions for the device were pressure, −1.5 PSI; upstream voltage, −2250 V; downstream voltage, −400 V; post sample buffer sip time, 40 seconds; final delay, 120 seconds; and peak order, Product First.
A conversion rate was calculated from the peak heights of the resulting substrate and product. The conversion rate when not containing a compound was used as a control, and a concentration dependent curve was made by plotting the rate of increase in activity to the control at each concentration of a compound.

Structures are written as SMILES.

T1 sequence (P54646 whole entry): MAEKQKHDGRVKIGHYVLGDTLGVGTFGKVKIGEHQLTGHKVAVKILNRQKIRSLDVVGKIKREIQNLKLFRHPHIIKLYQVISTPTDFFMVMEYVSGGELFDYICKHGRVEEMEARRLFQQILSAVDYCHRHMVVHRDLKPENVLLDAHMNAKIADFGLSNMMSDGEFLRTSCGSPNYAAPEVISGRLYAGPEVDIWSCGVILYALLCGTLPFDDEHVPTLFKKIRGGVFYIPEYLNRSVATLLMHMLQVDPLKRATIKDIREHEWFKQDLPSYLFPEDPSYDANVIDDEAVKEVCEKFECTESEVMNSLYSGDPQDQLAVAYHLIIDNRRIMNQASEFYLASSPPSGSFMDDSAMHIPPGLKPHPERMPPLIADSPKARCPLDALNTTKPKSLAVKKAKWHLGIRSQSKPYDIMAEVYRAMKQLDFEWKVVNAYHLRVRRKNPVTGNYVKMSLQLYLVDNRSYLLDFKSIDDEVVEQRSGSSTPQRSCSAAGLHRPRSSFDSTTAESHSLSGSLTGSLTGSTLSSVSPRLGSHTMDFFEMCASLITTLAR
T1 sequence (O43741 whole entry): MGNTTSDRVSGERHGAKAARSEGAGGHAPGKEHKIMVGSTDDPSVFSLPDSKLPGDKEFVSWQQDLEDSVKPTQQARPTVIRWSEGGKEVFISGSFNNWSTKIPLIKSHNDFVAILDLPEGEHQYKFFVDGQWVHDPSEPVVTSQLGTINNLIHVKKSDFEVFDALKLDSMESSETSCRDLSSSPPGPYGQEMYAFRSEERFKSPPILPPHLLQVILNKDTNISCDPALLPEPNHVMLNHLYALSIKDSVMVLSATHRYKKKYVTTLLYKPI
T1 sequence (P54619 whole entry): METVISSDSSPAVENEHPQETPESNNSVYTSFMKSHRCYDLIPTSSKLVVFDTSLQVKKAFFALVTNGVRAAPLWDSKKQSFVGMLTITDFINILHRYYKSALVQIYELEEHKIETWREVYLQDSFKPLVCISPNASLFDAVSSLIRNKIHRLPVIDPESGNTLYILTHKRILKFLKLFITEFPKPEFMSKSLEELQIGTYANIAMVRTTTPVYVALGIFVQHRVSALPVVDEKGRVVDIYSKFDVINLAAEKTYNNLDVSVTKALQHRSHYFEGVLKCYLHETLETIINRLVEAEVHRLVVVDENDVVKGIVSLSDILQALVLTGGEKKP

With `Cn1cc(-c2cc(F)c(CNc3nc4nc(O[C@@H]5CO[C@H]6[C@@H]5OC[C@H]6O)[nH]c4cc3Cl)c(F)c2)ccc1=O` [Compound I-2-217], the EC150 was 47 nM and the Emax was found to be 637%.
For `COCCOc1cc(F)c2c(c1)CC[C@@H]2Nc1nc2nc(O[C@@H]3CO[C@H]4[C@@H]3OC[C@H]4O)[nH]c2cc1Cl` [Compound I-2-220] the same measures were 1.1 nM and 669%.
For `CN(C)CCCc1cc(F)c(CNc2nc3nc(O[C@@H]4CO[C@H]5[C@@H]4OC[C@H]5O)[nH]c3cc2Cl)c(F)c1` [Compound I-2-222] the same measures were 16 nM and 532%.
For `CCOCCOc1cc(F)c2c(c1)CCC2Nc1nc2nc(O[C@@H]3CO[C@H]4[C@@H]3OC[C@H]4O)[nH]c2cc1Cl` (stereo partly drawn) [Compound I-2-223] the same measures were 2.8 nM and 649%.
`O[C@@H]1CO[C@H]2[C@@H]1OC[C@H]2Oc1nc2nc(NCc3c(F)cc(-c4cnn(CCN5CCOCC5)c4)cc3F)c(Cl)cc2[nH]1` [Compound I-2-228]: the EC150 is given as 8.5 nM and the Emax is 528%.
In the same order, the values of `CC(C)(O)CCc1cc(F)c(CNc2nc3nc(O[C@@H]4CO[C@H]5[C@@H]4OC[C@H]5O)[nH]c3cc2Cl)c(F)c1` [Compound I-2-233] are 9.3 nM and 507%.
As for `COC/C=C/c1cc(F)c2c(c1)CCC2Nc1nc2nc(O[C@@H]3CO[C@H]4[C@@H]3OC[C@H]4O)[nH]c2cc1Cl` (stereo partly drawn) [Compound I-2-238], the EC150 stood at 4.1 nM and the Emax came out at 553%.
For `Cn1cc(-c2cc(F)c3c(c2)CCC3Nc2nc3nc(O[C@@H]4CO[C@H]5[C@@H]4OC[C@H]5O)[nH]c3cc2Cl)cn1` (stereo partly drawn) [Compound I-2-239] the same measures were 5.6 nM and 535%.
Take `O[C@@H]1CO[C@H]2[C@@H]1OC[C@H]2Oc1nc2nc(/C=C/c3ccc(F)cc3F)c(Cl)cc2[nH]1` [Compound I-2-244]: the EC150 turned out to be 92 nM and the Emax was 517%.
